Laboratory results published in article PMC6397271 (Scientific Reports, 2019).
Converted amounts (≈) assume the structure as drawn. Where two headings read alike, the source gives them in different places.

Experiments:
[1] = test system: S. aureus MRSA 12673; assay: microbe, parasite or virus in culture; type: cell-based, Staphylococcus aureus; settings: for MIC: raw MIC
Source text: (§1) Three bacterial strains of MRSA (N315, 12673, 6347) and two of Enterococcus spp. (E. faecium, E. faecalis) were used. With respect to MRSA, N315 represented a reference Van-susceptible strain (GenBank GCA_00000645.1) isolated from a patient while 12673 (Van-intermediately susceptible) and 6347 (a h-VISA which appears at frequency of <10^−5 to 10^−6 is composed of two subpopulations of bacteria: one susceptible and one intermediately resistant)[38] were clinical strains obtained from patients of The Clinical University Centre of Gdańsk (UCK). […] The clinical strain isolates originated from the collection of the Department of Pharmaceutical Technology and Biochemistry, Faculty of Chemistry, Gdańsk University of Technology.
(§2) The strains were grown in Mueller-Hinton broth (MH cation-adjusted, Becton Dickinson) or Brain Heart Infusion broth (BHI, Becton Dickinson), respectively. The cultivation was carried out in an aerobic atmosphere at 37 °C for 24 hours and, afterwards, the bacterial cultures were diluted in geometric progression with a proper broth. Next, 100 µl of each dilution was inoculated in an agar plate and incubated at 37 °C for 24 h. The next procedures included determination of Colony Forming Units (CFU)/ml and minimal inhibitory concentration (MIC) of the compounds in question. The latter procedure was carried out according to the microbroth dilution technique using 96-well plates. The MICs were evaluated by using the metabolic assay based on the resazurin dye. The assay was performed in triplicates.

[2] = test system: S. aureus MRSA N315; assay: microbe, parasite or virus in culture; type: cell-based, Staphylococcus aureus
Source text: as §1, §2

[3] = test system: S. aureus MRSA hetero-VISA 6347; assay: microbe, parasite or virus in culture; type: cell-based, Staphylococcus aureus
Source text: as §1, §2

[4] = test system: Enterococcus faecalis 3937158; assay: microbe, parasite or virus in culture; type: cell-based
Source text: as §1, §2

[5] = test system: Enterococcus faecium 3934825; assay: microbe, parasite or virus in culture; type: cell-based
Source text: as §1, §2

[6] = test system: sheep erythrocytes; assay: Erythrocyte lysis assay; type: cell-based; settings: 37 °C, 1 hour, A450 nm; for cell lysis (haemolysis): 10^8 cells/ml, vs 4% Triton X-100, triplicates
Method: The protocol of the lysis assay is presented below.
To obtain sheep erythrocytes, 5 ml of fresh blood was centrifuged at 1000 × g for 10 min and washed 3 times with 0.9% NaCl. Cell suspension (final concentration of 10^8 cells/ml) in a volume of 75 µl was added to each well of the 96-well microtiter plate and incubated at 37 °C in the presence of the tested compounds. The range of their concentrations was 100–0.049 µM (diluted in saline solution), which included that of MIC values for the tested strains of the bacteria.
Plates with samples were incubated at 37 °C for 1 hour and then centrifuged at 1000 × g for 10 min to separate the unlysed erythrocytes. Next, the supernatant was transferred to a new plate. The absorbance (A) was measured spectrophotometrically at 450 nm of wavelength. The experiments were performed in triplicates.
The haemolysis percentage was calculated according to the equation presented by Sharma et al.[43]. The percentage of haemolysis = [(A450nm of test compound treated sample-A450nm of buffer treated sample)/(A450nm of 4%TritonX-100 treated samples-A450nm of buffer treated sample)] × 100.

[7] = test system: bacterial strain not named; assay: Raw data of the MIC measurement (absorbance); type: cell-based; settings: concentration marked (MIC) in raw absorbance data
Method: as §2

[8] = BBB penetration, fluorescence microscopy of brain slices; type: in vivo, BALB/c male mice; settings: iv tail vein 60 mg/kg, 2 hours, coronal cryo-sections, excitation 490 nm, emission 521 nm, n = 5
Method: In vivo experiments were performed on BALB/c male mice weighing between 20 and 30 g (the mouse model is widely used for estimation of drug BBB penetration). The animals (obtained from TAZD-CBU) were kept in a 12-hour day and night cycle at room temperature (20–22 °C), humidity 55–56% and fed with a standard diet and water ad libitum for at least 1 week before the experiment. Body temperature and weight were recorded on a regular daily schedule. It is confirmed that all procedures were carried out according to the guidelines outlined by the European Community Council Directive 2010/63/EEC, and they were approved by the local Ethical Committee Resolution 26/2014 (Bydgoszcz, Poland).
Fl-[Lys^7(PEG4-Van)]TP10 was administered to the mouse (n = 5) tail vein at a dose of 60 mg/kg in a volume of 100 μl of saline.
After 2 hours, the mice were sacrificed (by isoflurane overdose) and their brains were immediately removed from the cranium and cooled to 4 °C. Five, […] coronal cryo-sections of the brain were made starting from the frontal pole and moving to the occipital pole (HM 450 Sliding Microtome). The presence of the compound in question in the brain slices was visualized using a fluorescence microscope (Delta Optical IB-100, Delta Optical, Poland) at a fluorescence excitation and emission of 490 nm and 521 nm, respectively. […]

[9] = same test as μM value, mean ± SD
[10] = microbroth dilution, 96-well, resazurin, 37 °C, 24 h, mean ± SD, at least three independent experiments in triplicates
[11] = raw MIC, first block, test a, repetition 1, read-out: MIC1a
[12] = raw MIC, first block, test a, repetition 2, read-out: MIC2a
[13] = raw MIC, first block, test a, repetition 3, read-out: MIC3a
[14] = raw MIC, first block, test b, repetition 1, read-out: MIC1b
[15] = raw MIC, first block, test b, repetition 2, read-out: MIC2b
[16] = raw MIC, first block, test b, repetition 3, read-out: MIC3b
[17] = raw MIC, test a, repetition 1, read-out: MIC1a
[18] = raw MIC, test a, repetition 2, read-out: MIC2a
[19] = raw MIC, test a, repetition 3, read-out: MIC3a
[20] = raw MIC, test b, repetition 1, read-out: MIC1b
[21] = raw MIC, test b, repetition 2, read-out: MIC2b
[22] = raw MIC, test b, repetition 3, read-out: MIC3b

Molecule: CC[C@H](C)[C@H](NC(=O)[C@H](CCCCN)NC(=O)[C@H](CCCCN)NC(=O)[C@H](C)NC(=O)[C@H](CC(C)C)NC(=O)[C@H](C)NC(=O)[C@H](C)NC(=O)[C@H](CC(C)C)NC(=O)[C@H](C)NC(=O)[C@H](CCCCN)NC(=O)[C@H](CC(C)C)NC(=O)[C@H](CC(N)=O)NC(=O)[C@@H](NC(=O)[C@H](CCCCN)NC(=O)CNC(=O)[C@H](CC(C)C)NC(=O)[C@H](CC(C)C)NC(=O)[C@H](Cc1ccc(O)cc1)NC(=O)CNC(=O)[C@H](C)NC(=O)c1cn(CCOCCOCCOCCOCCC(=O)N[C@@]2(C)C[C@H](O[C@H]3[C@H](Oc4c5cc6cc4Oc4ccc(cc4Cl)[C@@H](O)[C@@H](NC(=O)[C@@H](CC(C)C)NC)C(=O)N[C@@H](CC(N)=O)C(=O)N[C@H]6C(=O)N[C@H]4C(=O)N[C@H](C(=O)N[C@H](C(=O)O)c6cc(O)cc(O)c6-c6cc4ccc6O)[C@H](O)c4ccc(c(Cl)c4)O5)O[C@H](CO)[C@@H](O)[C@@H]3O)O[C@@H](C)[C@H]2O)nn1)[C@@H](C)CC)C(=O)N[C@@H](CC(C)C)C(N)=O [conjugate II, Van-PEG4-TP10]
- MIC ([1]; first block, test a, repetition 1, read-out: MIC1a): 1.6 µM (≈ 6.33 µg/mL)
- MIC ([1]; first block, test a, repetition 2, read-out: MIC2a): 3.2 µM (≈ 12.7 µg/mL)
- MIC ([1]; first block, test a, repetition 3, read-out: MIC3a): 1.6 µM (≈ 6.33 µg/mL)
- MIC ([1]; first block, test b, repetition 1, read-out: MIC1b): 1.6 µM (≈ 6.33 µg/mL)
- MIC ([1]; first block, test b, repetition 2, read-out: MIC2b): 1.6 µM (≈ 6.33 µg/mL)
- MIC ([1]; first block, test b, repetition 3, read-out: MIC3b): 1.6 µM (≈ 6.33 µg/mL)
- MIC ([1]; test a, repetition 1, read-out: MIC1a): 6.33 µM (≈ 25 µg/mL)
- MIC ([1]; test a, repetition 2, read-out: MIC2a): 12.66 µM (≈ 50.1 µg/mL)
- MIC ([1]; test a, repetition 3, read-out: MIC3a): 6.33 µM (≈ 25 µg/mL)
- MIC ([1]; test b, repetition 1, read-out: MIC1b): 6.33 µM (≈ 25 µg/mL)
- MIC ([1]; test b, repetition 2, read-out: MIC2b): 6.33 µM (≈ 25 µg/mL)
- MIC ([1]; test b, repetition 3, read-out: MIC3b): 6.33 µM (≈ 25 µg/mL)
- MIC in (μg/ml) [1, 9]: 6.3 ± 2.6 µg/mL (≈ 1.59 µM)
- MIC [2, 10]: 1.6 ± 0.8 µM (≈ 6.33 µg/mL)
- MIC [2, 11]: 1.6 µM (≈ 6.33 µg/mL)
- MIC [2, 12]: 3.2 µM (≈ 12.7 µg/mL)
- MIC [2, 13]: 1.6 µM (≈ 6.33 µg/mL)
- MIC [2, 14]: 1.6 µM (≈ 6.33 µg/mL)
- MIC [2, 15]: 3.2 µM (≈ 12.7 µg/mL)
- MIC [2, 16]: 1.6 µM (≈ 6.33 µg/mL)
- MIC [2, 17]: 6.33 µM (≈ 25 µg/mL)
- MIC [2, 18]: 12.66 µM (≈ 50.1 µg/mL)
- MIC [2, 19]: 6.33 µM (≈ 25 µg/mL)
- MIC [2, 20]: 6.33 µM (≈ 25 µg/mL)
- MIC [2, 21]: 6.33 µM (≈ 25 µg/mL)
- MIC [2, 22]: 6.33 µM (≈ 25 µg/mL)
- MIC in (μg/ml) [2, 9]: 6.3 ± 2.6 µg/mL (≈ 1.59 µM)
- MIC [3, 10]: 3.1 ± 0.8 µM (≈ 12.3 µg/mL)
- MIC [3, 11]: 3.1 µM (≈ 12.3 µg/mL)
- MIC [3, 12]: 3.1 µM (≈ 12.3 µg/mL)
- MIC [3, 13]: 1.56 µM (≈ 6.17 µg/mL)
- MIC [3, 14]: 1.56 µM (≈ 6.17 µg/mL)
- MIC [3, 15]: 3.1 µM (≈ 12.3 µg/mL)
- MIC [3, 16]: 1.56 µM (≈ 6.17 µg/mL)
- MIC [3, 17]: 12.26 µM (≈ 48.5 µg/mL)
- MIC [3, 18]: 12.26 µM (≈ 48.5 µg/mL)
- MIC [3, 19]: 6.13 µM (≈ 24.3 µg/mL)
- MIC [3, 20]: 6.13 µM (≈ 24.3 µg/mL)
- MIC [3, 21]: 12.26 µM (≈ 48.5 µg/mL)
- MIC [3, 22]: 6.13 µM (≈ 24.3 µg/mL)
- MIC in (μg/ml) [3, 9]: 12.3 ± 3.6 µg/mL (≈ 3.11 µM)
- MIC [4, 10]: 25.0 ± 6.5 µM (≈ 98.9 µg/mL)
- MIC [4, 11]: 25 µM (≈ 98.9 µg/mL)
- MIC [4, 12]: 25 µM (≈ 98.9 µg/mL)
- MIC [4, 13]: 12.5 µM (≈ 49.5 µg/mL)
- MIC [4, 14]: 12.5 µM (≈ 49.5 µg/mL)
- MIC [4, 15]: 25 µM (≈ 98.9 µg/mL)
- MIC [4, 16]: 25 µM (≈ 98.9 µg/mL)
- MIC [4, 17]: 98.91 µM (≈ 391 µg/mL)
- MIC [4, 18]: 98.91 µM (≈ 391 µg/mL)
- MIC [4, 20]: 98.91 µM (≈ 391 µg/mL)
- MIC [4, 21]: 98.91 µM (≈ 391 µg/mL)
- MIC [4, 22]: 98.91 µM (≈ 391 µg/mL)
- MIC in (μg/ml) [4, 9]: 98.9 ± 21.8 µg/mL (≈ 25 µM)
- MIC [5, 10]: 25.0 ± 5.1 µM (≈ 98.9 µg/mL)
- MIC [5, 11]: 25 µM (≈ 98.9 µg/mL)
- MIC [5, 12]: 25 µM (≈ 98.9 µg/mL)
- MIC [5, 13]: 12.5 µM (≈ 49.5 µg/mL)
- MIC [5, 14]: 25 µM (≈ 98.9 µg/mL)
- MIC [5, 15]: 25 µM (≈ 98.9 µg/mL)
- MIC [5, 16]: 25 µM (≈ 98.9 µg/mL)
- MIC [5, 17]: 98.91 µM (≈ 391 µg/mL)
- MIC [5, 18]: 98.91 µM (≈ 391 µg/mL)
- MIC [5, 19]: 49.46 µM (≈ 196 µg/mL)
- MIC [5, 20]: 98.91 µM (≈ 391 µg/mL)
- MIC [5, 21]: 98.91 µM (≈ 391 µg/mL)
- MIC [5, 22]: 98.91 µM (≈ 391 µg/mL)
- MIC in (μg/ml) [5, 9]: 98.9 ± 20.2 µg/mL (≈ 25 µM)
- cell lysis (haemolysis) ([6]; 12.5 µM): 5%
- cell lysis (haemolysis) ([6]; 100 µM): 77%
- hemolysis at MIC concentrations ([6]; 6.25–0.78 μM): lack of hemolysis
- MIC (marked in raw data) [7]: 1,56 µM

Molecule: Fl-[Lys^7(PEG4-Van)]TP10 [conjugate IVa]
- presence in mouse brain slices (fluorescence) [8]: presence of the conjugate coupled with fluorescein in the brain
